Laboratory results taken from patent publication US20020115728A1, “Compositions and methods for treating cardiovascular disorders” (priority 2000, published 2002).
Read-outs that look alike come from different tables or passages of the source.

Assays:
[1] = Probucol and metabolite levels in aorta and plasma; format: in vivo; conditions: apoE−/− mice, 1% probucol, 24 weeks
Method: Male C57BL/6J mice, homozygous for the disrupted apoE gene (apoE−/−) were fed standard chow (Lab-Feed, Sydney, Australia) until aged 10 weeks.
Lipid-soluble antioxidants and lipids were quantified by HPLC as described in FASEB J. 1999;13:667-675. For ascorbate analysis, frozen acidified samples were thawed, diluted with DPBS to adjust the pH to 7.4 and then immediately subjected to HPLC. Plasma triglycerides were determined enzymatically (Boehringer, Mannheim, Germany).
Pooled aortas were snap frozen in liquid nitrogen, pulverised, resuspended in Buffer A, homogenised and then either treated with metaphosphoric acid (for ascorbate) or extracted and the hexane fraction analysed for lipid-soluble antioxidants, cholesterol (C), choleseteryl esters (CE), lipid hydroperoxides (LOOH) and cholesteryl ester hydroxides (CE-OH) by HPLC as described in Methods Enzymol. 1994;233:469-489. LOOH and CE-OH were measured as markers of lipoprotein lipid oxidation, as they are the primary and major oxidation products formed when lipoproteins from apoE−/− mice undergo oxidation. […] All compounds were quantified by peak area comparison with authentic standards, and protein determined.

[2] = Plasma drug level of bisphenol; format: in vivo, mice; conditions: for concentration at 14 weeks: male, apoE−/−;LDLr−/−, mouse, plasma, oral, 0.03 % (w/w) in chow, mice ranked by plasma drug level
Method: Male apoE−/−;LDLr−/− mice (59 total), were maintained on standard R3 chow from weaning to 8 weeks of age (young controls, n=9). Thereafter mice received R3 chow with (n=25) or without supplemented bisphenol (n=25) for an additional 14 weeks. Standard R3-mouse chow was fortified with bisphenol at 0.03% (w/w), a level of supplementation shown in pilot experiments to afford circulating concentrations of the drug of ˜200 μM, considered suitable to test the effect of the co-antioxidant on atherogenesis in this animal model. At 22 weeks of age 10 and 15 mice of each group were used for biochemical and histological analyses, respectively. Due to the small size, it was necessary to pool aortas to yield sufficient material for biochemical analyses.
Analyses of oxidised and non-oxidised lipids were carried out by RP-HPLC as described in Example 1 except that in some instances UV234 nm rather than post-column chemiluminescence detection was used to measure C18:2-OOH and the corresponding hydroxides (together referred to as CE-O(O)H) which show similar retention times under these chromatographic conditions. α-TQ, α-TOH, α-tocotrienol, D-isosascorbate and ascorbate were determined by HPLC with electrochemical detection. For oxidation of plasma, unesterified cholesterol (which remained non-oxidised in these experiments) was employed as internal standard for all polyunsaturated, lipid-soluble components analysed. Bisphenol and diphenoquinone were analysed by RP-HPLC: flow 1.5 mL/min, 100% solvent A (MeCN/MeOH/H20 10:10:3, v/v/v) for 0-15 min monitored at 270 nm, followed by 50% solvent A and B (MeCN/MeOH 1:1, v/v) for 15-22 min at 242 nm and then 100% B for 22-28 min at 420 nm. Bisphenol and diphenoquinone eluted at 9 and 27 min, respectively. All compounds were quantified by peak area comparison with authentic standards. […]
Unless otherwise stated lipid and antioxidant levels are expressed as pmol/mg protein. LH, lipid containing bisallylic hydrogens. §Values are expressed as nmol/mg protein. […]

[3] = system: tocopherol-mediated peroxidation (TMP); assay: Anti-TMP index; format: biochemical
[4] = system: apoE−/−;LDLr−/− mouse aortae; assay: Aqueous and lipophilic parameters of aortic homogenates; format: in vivo, mice; conditions: for Aortic Ascorbate: apoE−/−;LDLr−/− mice
Method: Mouse aortas were excised as follows: after bleeding, the heart was perfused with Dulbecco's phosphate-buffered saline containing 100 μM BHT and 1 mM EDTA (maximum pressure 80 mm Hg) through the left ventricle, the right side chamber being opened to allow flow. For histological samples only, the vasculature was subsequently fixed with formal saline. The hearts and entire aortas from all treatment groups were removed and immediately cleaned of fat and connective tissue. Aortas for biochemical analyses were frozen immediately ([…]) without formalin fixation.
Cleaned aortic segments were thawed, blotted, pooled (n=7 or 8), weighed, added to 2 mL of argon-flushed phosphate-buffered saline (to give ˜40 mg wet tissue/mL) containing BHT (100 μM) and EDTA (1 mM). The tissue was minced with scissors, isoascorbate (5 μM) and α-tocotrienol (1 μM) added as internal standards for ascorbate and vitamin E (including α-TQ), respectively, and the samples transferred to a polytetrafluoroethylene-lined glass tube and homogenised at 4° C. for 5 minutes using a teflon piston rotating at 500 r.p.m. For recovery of oxidised lipids, [^3H]-Ch18:2-OH was incorporated into human LDL and added to the vessel prior to homogenisation. […] For ascorbate measurement, raw homogenate (50 μL) was added to metaphosphoric acid (5% v/v, 50 μL) and frozen on dry ice. Immediately before HPLC analysis, the aliquots were thawed and diluted with phosphate buffer (50 μL, 250 mM, pH 7.4), to adjust the pH. For the analyses of lipids, the remaining homogenate (˜1.8 mL) was divided into 4×450 μl aliquots and each extracted with chilled methanol (2 mL) and hexane (10 mL). Hexane phases were combined and evaporated to dryness and the residue resuspended in isopropanol (200 μL).
Analyses of oxidised and non-oxidised lipids were carried out by RP-HPLC as described in Example 1 except that in some instances UV234 nm rather than post-column chemiluminescence detection was used to measure C18:2-OOH and the corresponding hydroxides (together referred to as CE-O(O)H) which show similar retention times under these chromatographic conditions. α-TQ, α-TOH, α-tocotrienol, D-isosascorbate and ascorbate were determined by HPLC with electrochemical detection. For oxidation of plasma, unesterified cholesterol (which remained non-oxidised in these experiments) was employed as internal standard for all polyunsaturated, lipid-soluble components analysed. Bisphenol and diphenoquinone were analysed by RP-HPLC: flow 1.5 mL/min, 100% solvent A (MeCN/MeOH/H20 10:10:3, v/v/v) for 0-15 min monitored at 270 nm, followed by 50% solvent A and B (MeCN/MeOH 1:1, v/v) for 15-22 min at 242 nm and then 100% B for 22-28 min at 420 nm. Bisphenol and diphenoquinone eluted at 9 and 27 min, respectively. All compounds were quantified by peak area comparison with authentic standards. Where indicated, total cholesterol and triglyceride were assayed enzymatically (Boehringer, Mannheim, Germany).
Unless otherwise stated lipid and antioxidant levels are expressed as pmol/mg protein. LH, lipid containing bisallylic hydrogens. §Values are expressed as nmol/mg protein. Protein ranged from 2.4 - 3.3 mg/mL. ¶Value given represents ratio ×10^3. †Mice were ranked in order of plasma concentration of bisphenol, then corresponding aortae were pooled into groups of 7 and 8 on the basis of plasma drug-levels giving two distinct groups. Low and high bisphenol correspond to 106±40 and 212±50 μM, respectively. Control aortas were pooled randomly into two groups of 7 and 8 respectively.

Compound: CC(C)(Sc1cc(C(C)(C)C)c(O)c(C(C)(C)C)c1)Sc1cc(C(C)(C)C)c(O)c(C(C)(C)C)c1 [Probucol, probucol]
- drug metabolised to bisphenol or diphenoquinone, aorta ([1]; aorta): ~11%
- drug converted into bisphenol or diphenoquinone, plasma ([1]; plasma): ~8%

Compound: CC(C)(C)c1cc(-c2cc(C(C)(C)C)c(O)c(C(C)(C)C)c2)cc(C(C)(C)C)c1O [Bisphenol, bisphenol]
- circulating concentrations of the drug, pilot experiments ([2]; chow fortified with bisphenol at 0.03% (w/w)): ~200 µM
- concentration at 14 weeks ([2]; Bisphenol [high] aorta pool, read-out: plasma concentration of bisphenol, high group): 212 ± 50 µM
- concentration at 14 weeks ([2]; Bisphenol [low] aorta pool, read-out: plasma concentration of bisphenol, low group): 106 ± 40 µM
- Anti-TMP index [3]: 3.2
- Aortic C ([4]; Bisphenol [high]): 190 nmol/mg protein
- Aortic C18:2 ([4]; Bisphenol [high]): 13.3 nmol/mg protein
- Aortic C20:4 ([4]; Bisphenol [high]): 8.5 nmol/mg protein
- Aortic CE-O(O)H ([4]; Bisphenol [high]): 2.8 pmol/mg protein
- Aortic CE-O(O)H/LH ([4]; Bisphenol [high]): 0.002 ratio ×10^3
- Aortic α-TOH ([4]; Bisphenol [high]): 586 pmol/mg protein
- Aortic α-TQ ([4]; Bisphenol [high]): 3.5 pmol/mg protein
- Aortic Ascorbate ([4]; Bisphenol [high] (plasma 212±50 μM)): 2570 pmol/mg protein
- Aortic C ([4]; Bisphenol [low]): 204 nmol/mg protein
- Aortic C18:2 ([4]; Bisphenol [low]): 21.0 nmol/mg protein
- Aortic C20:4 ([4]; Bisphenol [low]): 12.7 nmol/mg protein
- Aortic CE-O(O)H ([4]; Bisphenol [low]): 14.1 pmol/mg protein
- Aortic CE-O(O)H/LH ([4]; Bisphenol [low]): 0.145 ratio ×10^3
- Aortic α-TOH ([4]; Bisphenol [low]): 669 pmol/mg protein
- Aortic α-TQ ([4]; Bisphenol [low]): 4.9 pmol/mg protein
- Aortic Ascorbate ([4]; Bisphenol [low] (plasma 106±40 μM)): 3204 pmol/mg protein
- level of aortic oxidised lipids lower than control ([4]; animals with high plasma levels of bisphenol): 1000 fold
- level of aortic oxidised lipids lower than control ([4]; animals with low plasma levels of bisphenol): 10 fold
